Data: ChEMBL document CHEMBL1201862, “PubChem BioAssay data set” (2004)
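Where inhibition never reached the appropriate level, the endpoint shown equals the highest concentration tested. Otherwise, values were interpolated linearly from a five-concentration, 48-hour dose response in 96-well plates. GI50 marks 50% less growth.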 Activity calls are given as the source filed them. Cut-off read from the data, not from the text of the source: active = GI50 up to about 1.1 µM and inactive = higher.

Experiments:
Test in all cases: NCI anticancer screen, dose series, 48 h
EKVX = system: EKVX
HCC 2998 = system: HCC 2998
HCT-116 = system: HCT-116
HCT-15 = system: HCT-15
HOP-92 = system: HOP-92
KM12 = system: KM12
NCI-H23 = system: NCI-H23
NCI-H460 = system: NCI-H460
OVCAR-8 = system: OVCAR-8
RXF 393 = system: RXF 393
SF-295 = system: SF-295
SK-MEL-5 = system: SK-MEL-5
SNB-75 = system: SNB-75
SR = system: SR
K562 = system: K562
M14 = system: M14
OVCAR-4 = system: OVCAR-4

| Compound | GI50 (EKVX) | GI50 (HCC 2998) | GI50 (HCT-116) | GI50 (HCT-15) [µM] | GI50 (HOP-92) | GI50 (KM12) | GI50 (NCI-H23) | GI50 (NCI-H460) | GI50 (OVCAR-8) | GI50 (RXF 393) | GI50 (SF-295) | GI50 (SK-MEL-5) | GI50 (SNB-75) | GI50 (SR) | GI50 (K562) | GI50 (M14) | GI50 (OVCAR-4) |
| --- | --- | --- | --- | --- | --- | --- | --- | --- | --- | --- | --- | --- | --- | --- | --- | --- | --- |
| O=C1NCC2=C1CCC1c3ccccc3CCN21 (stereo unspecified) | > 100 µM (inactive) | > 100 µM (inactive) | > 100 µM (inactive) | > 100 | > 100 µM (inactive) | > 100 µM (inactive) | > 100 µM (inactive) | > 100 µM (inactive) | > 100 µM (inactive) | > 100 µM (inactive) | > 100 µM (inactive) | > 100 µM (inactive) | > 100 µM (inactive) | > 100 µM (inactive) | – | – | – |
| CC(=O)CC(=O)OC1CC(C)CCC1C(C)C (stereo unspecified) | > 100 µM (inactive) | 41.4 µM (inactive) | 13.5 µM (inactive) | 38.7 | 35 µM (inactive) | 37.8 µM (inactive) | 96.8 µM (inactive) | 53.3 µM (inactive) | 72.8 µM (inactive) | 72.4 µM (inactive) | 80.7 µM (inactive) | 42.2 µM (inactive) | 73.3 µM (inactive) | – | 16 µM (inactive) | > 100 µM (inactive) | 54.5 µM (inactive) |
| O=c1[nH]c(=O)n([C@H]2C[C@@H](CO)[C@@H](O)C2)cc1I | > 100 µM (inactive) | > 100 µM (inactive) | > 100 µM (inactive) | > 100 | > 100 µM (inactive) | > 100 µM (inactive) | > 100 µM (inactive) | > 100 µM (inactive) | > 100 µM (inactive) | – | > 10 µM (inactive) | > 100 µM (inactive) | 91.6 µM (inactive) | – | > 100 µM (inactive) | > 100 µM (inactive) | > 100 µM (inactive) |
| Cc1ccc(-n2nc(C(OC3OC(CO)C(O)C(O)C3O)C(O)CO)c3nc4cc(C)c(C)cc4nc32)cc1 (stereo unspecified) | > 100 µM (inactive) | > 100 µM (inactive) | > 100 µM (inactive) | > 100 | – | > 100 µM (inactive) | > 100 µM (inactive) | > 100 µM (inactive) | > 100 µM (inactive) | 36.2 µM (inactive) | > 100 µM (inactive) | – | 34 µM (inactive) | – | > 100 µM (inactive) | > 100 µM (inactive) | 99.1 µM (inactive) |
| CC1(C)OCC([C@H]2CC23SCCCS3)O1 (stereo partly specified) | > 100 µM (inactive) | – | > 100 µM (inactive) | > 100 | 51.8 µM (inactive) | > 100 µM (inactive) | > 100 µM (inactive) | > 100 µM (inactive) | > 100 µM (inactive) | > 100 µM (inactive) | > 100 µM (inactive) | > 100 µM (inactive) | > 100 µM (inactive) | > 100 µM (inactive) | > 100 µM (inactive) | > 100 µM (inactive) | > 100 µM (inactive) |
| N#CC(/C(CCC(=O)Nc1ccc(Cl)cc1)=N/NC(=O)c1cc2ccccc2cc1O)c1ccccc1 (stereo unspecified) | 34.4 µM (inactive) | 52.2 µM (inactive) | 31.3 µM (inactive) | – | 40.9 µM (inactive) | 35.9 µM (inactive) | 39.3 µM (inactive) | 30.7 µM (inactive) | 32.2 µM (inactive) | 56.5 µM (inactive) | 39.8 µM (inactive) | 19.4 µM (inactive) | 45 µM (inactive) | – | – | 32.6 µM (inactive) | 51.9 µM (inactive) |
| CCCC(=O)N[C@H]1C2C3CC4C5CC(C42)C1(C)C53 (stereo partly specified) | > 100 µM (inactive) | > 100 µM (inactive) | > 100 µM (inactive) | > 100 | > 100 µM (inactive) | > 100 µM (inactive) | – | > 100 µM (inactive) | – | > 100 µM (inactive) | > 100 µM (inactive) | > 100 µM (inactive) | > 100 µM (inactive) | > 100 µM (inactive) | > 100 µM (inactive) | > 100 µM (inactive) | > 100 µM (inactive) |
| COC(=O)C1=NC(=S)NC(c2ccccc2)C1c1nc2ccccc2s1 (stereo unspecified) | > 100 µM (inactive) | > 100 µM (inactive) | > 100 µM (inactive) | > 100 | > 100 µM (inactive) | > 100 µM (inactive) | > 100 µM (inactive) | > 100 µM (inactive) | > 100 µM (inactive) | > 100 µM (inactive) | > 100 µM (inactive) | > 100 µM (inactive) | 55.3 µM (inactive) | > 100 µM (inactive) | – | > 100 µM (inactive) | > 100 µM (inactive) |
| Cn1ccnc1CCc1ccc(Cl)cc1Cl | 48.8 µM (inactive) | > 100 µM (inactive) | > 100 µM (inactive) | > 100 | 49.9 µM (inactive) | > 100 µM (inactive) | > 100 µM (inactive) | > 100 µM (inactive) | > 100 µM (inactive) | 35.4 µM (inactive) | 79.1 µM (inactive) | – | > 100 µM (inactive) | – | > 100 µM (inactive) | > 100 µM (inactive) | > 100 µM (inactive) |
| O=C(NCCCCCCNC(=O)OCCSCCn1cc(C(=O)NC(=O)OCc2ccccc2)c(=O)[nH]c1=O)OCCSCCn1cc(C(=O)NC(=O)OCc2ccccc2)c(=O)[nH]c1=O | > 100 µM (inactive) | > 100 µM (inactive) | – | > 100 | 32.1 µM (inactive) | > 100 µM (inactive) | > 100 µM (inactive) | > 100 µM (inactive) | > 100 µM (inactive) | 45.5 µM (inactive) | > 100 µM (inactive) | > 100 µM (inactive) | – | – | > 100 µM (inactive) | > 100 µM (inactive) | > 100 µM (inactive) |
| O=C(/C=C/c1ccco1)c1ccc(NCc2nc3ccccc3[nH]2)cc1 | 14.6 µM (inactive) | 14.6 µM (inactive) | – | 15 | 12.2 µM (inactive) | 10.3 µM (inactive) | 13.5 µM (inactive) | 23.3 µM (inactive) | 17.9 µM (inactive) | – | 15.6 µM (inactive) | 14.8 µM (inactive) | 15.8 µM (inactive) | 10.8 µM (inactive) | 15.2 µM (inactive) | 16.9 µM (inactive) | 19.2 µM (inactive) |
| O=C(O)CCC(=O)Oc1ccc(O)c2c1CCCC2=O | 58.5 µM (inactive) | > 100 µM (inactive) | > 100 µM (inactive) | > 100 | – | > 100 µM (inactive) | > 100 µM (inactive) | > 100 µM (inactive) | > 100 µM (inactive) | > 100 µM (inactive) | > 100 µM (inactive) | 49.8 µM (inactive) | 55.7 µM (inactive) | 64 µM (inactive) | > 100 µM (inactive) | > 100 µM (inactive) | > 100 µM (inactive) |
| COc1ccc(NC(=O)CC/C(CC(=O)c2ccco2)=N/NC(N)=S)cc1 | > 100 µM (inactive) | > 100 µM (inactive) | > 100 µM (inactive) | > 100 | > 100 µM (inactive) | > 100 µM (inactive) | > 100 µM (inactive) | > 100 µM (inactive) | > 100 µM (inactive) | – | > 100 µM (inactive) | – | – | – | > 100 µM (inactive) | > 100 µM (inactive) | > 100 µM (inactive) |
| COc1ccc2nc3ccccc3c(NCCCCCCN(C)CCCl)c2c1 | 1.39 µM (inactive) | 0.705 µM (active) | 0.0887 µM (active) | 0.221 | 0.158 µM (active) | 0.27 µM (active) | 0.175 µM (active) | 0.0569 µM (active) | 0.296 µM (active) | 0.367 µM (active) | 1 µM (active) | 0.918 µM (active) | 0.703 µM (active) | – | 0.0582 µM (active) | 0.834 µM (active) | 1.09 µM (active) |
| CCOC(=O)C1CC(=O)C=C2CCCCC21 (stereo unspecified) | > 100 µM (inactive) | > 100 µM (inactive) | > 100 µM (inactive) | > 100 | > 100 µM (inactive) | > 100 µM (inactive) | > 100 µM (inactive) | > 100 µM (inactive) | > 100 µM (inactive) | > 100 µM (inactive) | > 100 µM (inactive) | > 100 µM (inactive) | 99.3 µM (inactive) | – | > 100 µM (inactive) | > 100 µM (inactive) | > 100 µM (inactive) |
| C[C@H]1CC[P+](Cc2ccccc2)(c2ccccc2)C1 (stereo partly specified) | 73.3 µM (inactive) | 67.6 µM (inactive) | > 100 µM (inactive) | > 100 | – | > 100 µM (inactive) | > 100 µM (inactive) | > 100 µM (inactive) | > 100 µM (inactive) | > 100 µM (inactive) | > 100 µM (inactive) | 22.2 µM (inactive) | 73.6 µM (inactive) | 90.4 µM (inactive) | > 100 µM (inactive) | > 100 µM (inactive) | > 100 µM (inactive) |
| Cc1ccc(Nc2nc3c(s2)C(=O)c2ccccc2C3=O)c(C)c1 | 18.3 µM (inactive) | 17.2 µM (inactive) | – | 17.5 | 9.48 µM (inactive) | 16 µM (inactive) | 10.1 µM (inactive) | 22.2 µM (inactive) | 15.7 µM (inactive) | 15.6 µM (inactive) | 15.3 µM (inactive) | 13.1 µM (inactive) | 15.8 µM (inactive) | – | 10.9 µM (inactive) | 14.3 µM (inactive) | 12.2 µM (inactive) |
| COc1ccc2c(c1)Oc1cc(O)ccc1[C@H]2c1ccccc1C(=O)NC(C)c1ccccc1 (stereo partly specified) | 16.5 µM (inactive) | 12.8 µM (inactive) | 13.6 µM (inactive) | 14.6 | – | 14.3 µM (inactive) | 15.5 µM (inactive) | 13.3 µM (inactive) | 16 µM (inactive) | 18.7 µM (inactive) | 12.4 µM (inactive) | 15.1 µM (inactive) | 16.4 µM (inactive) | – | 16.8 µM (inactive) | 13.1 µM (inactive) | – |
| O=C1NC(Cc2ccc(O)cc2)C(=O)N2CCCC12 (stereo unspecified) | > 100 µM (inactive) | > 100 µM (inactive) | > 100 µM (inactive) | > 100 | > 100 µM (inactive) | > 100 µM (inactive) | – | > 100 µM (inactive) | > 100 µM (inactive) | > 100 µM (inactive) | > 100 µM (inactive) | > 100 µM (inactive) | > 100 µM (inactive) | > 100 µM (inactive) | > 100 µM (inactive) | > 100 µM (inactive) | > 100 µM (inactive) |
